US20080319002A1, “Xanthine Derivatives a Useful as Muscarinic Receptor Antagonists” (RANBAXY LABORATORIES LIMITED, priority 2004, published 2008)

Compound	melting point [°C]
O=C(N[C@H]1[C@@H]2CNC[C@@H]21)C1c2ccccc2Oc2ccccc21 [Compound No. 6]	183 to 190
O=C(NC[C@@H]1[C@H]2CN(CCc3ccc4c(c3)CCO4)C[C@@H]12)C1c2ccccc2Oc2ccccc21 [Compound No. 11, N-[(1α,5α,6α)-3-(2-(2,3-dihydro-benzofuran-5-yl)-ethyl)-3-aza-bicyclo[3.1.0]hex-6-ylmethyl]-9H-Xanthene-9-carboxylic acid amide]	165
